This note sets out measurements from patent publication US10052331B2, “3-(3H-imidazo[4,5-C]pyridin-2-yl)-1H-pyrazolo[3,4-C]pyridine and therapeutic uses thereof” (Samumed, LLC, priority 2014, dated 2018).

Assay type in all cases: cell-based
One assay has as its system ARPE-19 cells. As to the kind of experiment: Transdifferentiation of ARPE-19 cells into eye neuronal cells [photoreceptors] (PAX6 staining). Particulars: Homo sapiens, 40 hours, normalized to DMSO. Here is the method: The above synthesized compounds were screened using ARPE-19 cells [a spontaneously arising retinal pigment epithelia (RPE) cell line] to determine their ability to transdifferentiate ARPE-19 into eye neuronal cells [photoreceptors].
ARPE-19 cells are cultured in standard culture medium containing Dulbecco's Modified Eagle's Medium and Ham's F12 Nutrient Mixture (DMEM/F12) mix (1:1)+GlutaMax with 1% penicillin-Streptomycin and 10% FBS (Fetal Bovine Serum). Cells are incubated at 37° C. with 5% CO2. Cells are trypsinized and plated onto 384-well pre-spotted plate at a density of 3000 cells/well in 50 uL of media. Plating media: DMEM/F12 (1:1)+3% charcoal filtered-FBS+GlutaMax+1% pen/Strep. Cells are incubated at 37° C. with 5% CO2. At 40 hours, cells were fixed for 15 min with 10% Buffered Formalin. Cells were then washed 3 times with PBS for 5 min each, permeablize using 0.3% Triton X-100 in 1×PBS for 30 min, block for 1 hr with 2% BSA in 1×PBS with 0.1% Triton X-100. The primary antibody (1:100 PAX6 Santa Cruz Biotech; sc-81649) was diluted and 10 μL/well was added to the cells. The cells were incubated overnight at 4° C. […] Readings were normalized to DMSO only treated cells, and normalized activities were utilized for EC50 calculations using the dose-response log (activator) vs. response-variable slope (four parameters) nonlinear regression feature available in GraphPad Prism 5.0 or 6.0.

Assay [1] has as its system primary human fibroblasts derived from IPF patients (LL29 cells). As to the kind of experiment: Inhibition of fibrotic process: αSMA staining in TGF-β1-treated primary human fibroblasts from IPF patients (LL29 cells). Particulars: Fibroblast, 96 h, LL29 cells treated with TGF-β1 (20 ng/mL), 4 days, 11-point dose-response from 10 μM to 1.87 nM, read-out: Inhibition of fibrosis EC50. In outline:
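LL29 IPF lung fibroblasts in F12 with 1% FBS, compound (11-point, 10 μM to 1.87 nM, 0.1% DMSO) plus TGF-β1 20 ng/mL for 4 days at 37° C. αSMA-positive % of SYTOX-negative cells by immunofluorescence imaging, normalized to TGF-β1 wells; EC50 from non-linear regression of triplicates.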

Assay [2] relates to Wnt activity (Wnt-responsive Sp5 promoter-luciferase reporter in SW480 cells). Briefly: Wnt activity screening assay: Sp5-Luc reporter gene in SW480 colon carcinoma cells. Particulars: Homo sapiens. In outline: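 IC50 values come from variable-slope four-parameter fits of luciferase signal normalized to DMSO wells. Stable Sp5-Luc reporter SW480 colon carcinoma cells were exposed to compounds in a 3-fold dilution series (source plates from 10 mM stock) for forty-two hours at 37 °C.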

Assay [3] deals with primary human mesenchymal stem cells (hMSCs). As to the kind of experiment: Chondrogenesis induction in primary human mesenchymal stem cells (nodule imaging, Rhodamine B/Nile Red). Particulars: 144 h, 6 days; for EC (100% TGF-beta3 activity): concentration required to induce chondrogenesis equivalent to TGF-β3 positive control, read-out: Conc (nM) of 100% TGF-β3 activity; for Emax: relative to TGF-β3 (10 ng/mL) positive control, read-out: Max. Activity as % TGF-β3 activity. How it is done: The above synthesized compounds were screened using primary human mesenchymal stem cells (hMSCs) to determine their ability to induce chondrogenesis (process by which cartilage is developed).
Primary human mesenchymal stem cells (hMSCs) were purchased from Lonza (Walkersville, Md.) and expanded in Mesenchymal Stem Cell Growth Media (Lonza). Cells between passage 3 and 6 were used for the experiments.
Each compound was dissolved in DMSO as a 10 mM stock and used to prepare compound source plates. Serial dilution (1:3, 6-point dose-response curves from 2700 nM to 10 nM) and compound transfer was performed using the ECHO 550 (Labcyte, Sunnyvale, Calif.) into 96-well clear bottom assay plates (Greiner Bio-One) with appropriate DMSO backfill for a final DMSO concentration of 0.03%. hMSCs were plated at 20,000 cells/well in 250 μL/well Incomplete Chondrogenic Induction Medium (Lonza; DMEM, dexamethasone, ascorbate, insulin-transferrin-selenium [ITS supplement], gentamycin-amphotericin [GA-1000], sodium pyruvate, proline and L-glutamine). TGF-β3 (10 ng/mL) was used as a positive control for differentiation while negative control wells were treated with 75 nL DMSO for normalization and calculating EC50 values. Cells were incubated at 37° C. and 5% CO2 for 6 days. To image chondrogenic nodules, the cells were fixed using 4% formaldehyde (Electron Microscopy Sciences), and stained with 2 μg/mL Rhodamine B (Sigma-Aldrich) and 20 μM Nile Red (Sigma-Aldrich) [Johnson K., et. al, A Stem Cell-Based Approach to Cartilage Repair, Science, (2012), 336(6082), 717-721]. The nodules imaged (4 images per well at 4× magnification) by excitation at 531 nm and emission at 625 nm and quantified using the CellInsight CX5 (Thermo Scientific). Number of nodules in each well was normalized to the average of 3 DMSO treated wells on the same plate using Excel (Microsoft Inc.). The normalized averages (fold change over DMSO) of 3 replicate wells for each compound concentration were calculated. Due to solubility limitations of some of the compounds, curve fitting was incomplete leading to inaccurate EC50 determinations.
Using TGF-03 as a positive control, the concentration of test compounds required to induce equivalent levels of chondrogenesis is reported. In addition, the maximum activity of each compound and the respective dose that each compound reached maximum chondrogenesis activity is reported.

pEC50, pIC50: −log10 of the molar value.

The term pEC50 denotes the negative decadic logarithm of the EC50, by convention in mol/L. In general, pIC50 refers to the IC50 on a negative log10 scale, so that one unit is a factor of ten. Low readings indicate a high IC50, high ones a low IC50.

In the case of `CN(C)CCOc1cncc(-c2cc3c(-c4nc5c(-c6cccc(F)c6)cncc5[nH]4)n[nH]c3cn2)c1` [Compound 895, 2-((5-(3-(7-(3-Fluorophenyl)-3H-imidazo[4,5-c]pyridin-2-yl)-1H-pyrazolo[3,4-c]pyridin-5-yl)pyridin-3-yl)oxy)-N,N-dimethylethan-1-amine], the pEC50 with ARPE-19 cells is 6.79; in assay [1] it was no more than 5.00. Moreover, the pIC50 in assay [2] is 6.36.

Consider `NC1CN(c2cncc(-c3cc4c(-c5nc6c(-c7cccc(F)c7)cncc6[nH]5)n[nH]c4cn3)n2)C1` [Compound 890, 1-(6-(3-(7-(3-Fluorophenyl)-3H-imidazo[4,5-c]pyridin-2-yl)-1H-pyrazolo[3,4-c]pyridin-5-yl)pyrazin-2-yl)azetidin-3-amine], for which the pEC50 in the assay with ARPE-19 cells was 8.05; in assay [1] it was 7.06. Moreover, in assay [2], the pIC50 was 6.99.

Turning to `CCNCc1cncc(-c2cc3c(-c4nc5c(-c6cccc(F)c6)cncc5[nH]4)n[nH]c3cn2)c1` [Compound 6, N-((5-(3-(7-(3-Fluorophenyl)-3H-imidazo[4,5-c]pyridin-2-yl)-1H-pyrazolo[3,4-c]pyridin-5-yl)pyridin-3-yl)methyl)ethanamine], in assay [3], the EC (100% TGF-beta3 activity) was found to be 136 nM and the Emax was 300%. Moreover, the negative-log EC50 (pEC50) in assay [1] is 6.29. The compound further showed a pIC50 in assay [2] of 7.87.

Turning to `Cn1cc(-c2cc3c(-c4nc5c(-c6cccc(F)c6)cncc5[nH]4)n[nH]c3cn2)cn1` [Compound 888, 3-(7-(3-Fluorophenyl)-3H-imidazo[4,5-c]pyridin-2-yl)-5-(1-methyl-1H-pyrazol-4-yl)-1H-pyrazolo[3,4-c]pyridine], in assay [3], the EC (100% TGF-beta3 activity) amounted to 71 nM and the Emax amounted to 100%. Also, the pEC50 in assay [1] is no less than 8.05. This compound also had a pIC50 in assay [2] of 7.15.
